The test system of test [1] is SK-OV-3 cells. Nature of the test: In vitro cell viability, ovarian cancer SK-OV-3. Format: cell-based, human. The conditions noted are these: * at concentration of 2 μM for 72 h; Table 3B. The procedure:
The inhibitory effects of the various synthesized GHRH antagonists were tested in cell proliferation assays in various human cancer cell lines including stomach cancer (KATOIII, N87), colon cancer (HT-29), urothelial cancer (J82, RT4), pancreatic cancer (PANC-1, CFPAC-1), prostatic cancer (PC3), breast cancer (MX-1, HCC1806), ovarian cancer (SK-OV-3, OVCAR-3) and lung cancer (HCC827, H460).
Cell culture. Human cancer cell lines including pancreatic (PANC-1 and CFPAC-1), lung (HCC827 and H460), stomach (NCI-N87 and KATOIII), urothelial (J82, RT4), prostatic (PC3), breast (MX-1 and HCC 1806), colorectal (HT-29), and ovarian (SK-OV-3 and OVCAR-3) were obtained from the American Type Culture Collection (ATCC) and cultured at 37° C. in a humidified 95% air/5% CO2 atmosphere in the medium recommended by ATCC.
In vitro cell viability. Cell viability was analyzed as follows: cancer cells including pancreatic (PANC-1 and CFPAC-1), lung (HCC827 and H460), stomach (NCI-N87 and KATOIII), urothelial (J82, RT4), prostatic (PC3) and breast (MX-1 and HCC 1806), colorectal (HT-29) and ovarian (SK-OV-3 and OVCAR-3) were grown on 96 well plates to ˜60% confluence, the cells were starved for 24 h in culture medium containing 0.5% FBS. […] Cell viability was measured using CellTiter 96 aqueous one solution kit (Promega). […]

Test [2] deals with SK-OV-3 xenograft. Nature of the test: Xenograft tumor growth in nude mice, ovarian cancer SK-OV-3. Format: in vivo. The conditions noted are these: Panel L, 7 weeks, 5 μg/day s.c. Here is the method:
The peptides' activity was compared with GHRH antagonist MIA-602. All statistical analyzses were performed from comparing GHRA antagonists to non-treated tumor (control).
Peptides and chemicals. GHRH antagonists MIA-602 and AVR-GHRH antagonists (see Table 2 above) were synthesized by solid phase methods and purified by HPLC. The peptides were dissolved in DMSO and further diluted in 10% 1, 2-propanediol. The final concentration of peptides was 50 µg/ml in 10% 1, 2-propanediol containing 0.1% of DMSO.
Cell culture. Human cancer cell lines including pancreatic (PANC-1 and CFPAC-1), lung (HCC827 and H460), stomach (NCI-N87), prostate (PC3), brest (MX-1 and HCC-1806), colorectal (HT-29), and ovarian (SK-OV-3 and OVCAR-3) were obtained from the American Type Culture Collection (ATCC) and cultured at 37° C. in a humidified 95% air/5% CO2 atmosphere in the medium recommended by ATCC.
Xenograft models of human cancers in nude mice. Female athymic (NCr nu/nu) nude mice, 5-to 6-weeks-old, obtained from the Envigo labs (Tampa, FL), were housed in laminar airflow cabinets under pathogen-free conditions with a 12-h light/12-h dark schedule, and were fed autoclaved standard chow and water. To generate mice with xenografted tumors, tumor xenografts were initiated by subcutaneous (s.c.) injection of […] human cancer cells into female nude mice. After about 4 weeks the resulting tumors were dissected and collected after removing necrosis tissues. The tumors were then cut into particles with size of ˜3 mm3 and transplanted s.c. by trocar needle into experimental animals. When tumors grew to the size of 50-60 mm3 (by volume), mice were randomized into groups and treated daily for 4-8 weeks by subcutaneous administration of 5 μg of GHRH antagonists MIA-602 or AVR-compounds (2-10 μg as indicated), or vehicle solutions (0.1% DMSO in 10% 1, 2-propanediol) respectively. Tumor sizes were measured weekly.
Statistical analysis. One-way ANOVA followed by Bonferroni comparison were performed. Data are expressed as Mean±SEM. To determine statistical significance between animal groups, two-tailed Student's t-test was conducted. Differences were considered significant when p<0.05.
Results. […] FIG. 1A-N represents in vivo inhibition of tumor growth during the treatment with GHRH antagonist MIA-602 and selected AVR antagonists in nude mice xenografted with various human tumors including pancreatic cancer PANC-1 (FIG. 1A) and CFPAC-1 (FIG. 1I); lung cancer HCC827 (FIGS. 1B, C) and H460 (FIG. 1H); stomach cancer N87 (FIGS. 1D-F); colon cancer HT-29 (FIG. 1G); breast cancer MX-1 and HCC-1806 (FIGS. 1J, K); ovarian cancer SK-OV-3 and OVACAR-3 (FIGS. 1L, M) and prostate cancer PC3 (FIG. 1N). See also Table 5.

The values that follow come from patent US11993640B2, “Treating inflammatory lung disease” (United States Government as represented by the Department …, priority 2019, dated 2024).

As usually defined, the % Inhibition is the drop in the measured response relative to a control, in per cent. Lower therefore signals a weak effect.

Structures are written as SMILES. Non-standard residues stand in square brackets, D forms with d. Residues, ends and D or L forms follow the SMILES beside them. *: point of attachment. Phe(F5) = N[C@@H](Cc1c(F)c(F)c(F)c(F)c1F)C(=O)O; hArg = N=C(N)NCCCC[C@H](N)C(=O)O; 12Ado = NCCCCCCCCCCCC(=O)O; Nle = CCCC[C@H](N)C(=O)O; Orn = NCCC[C@H](N)C(=O)O; Abu = CC[C@H](N)C(=O)O; PhAc = O=C(Cc1ccccc1)*

Regarding `CCCC[C@H](NC(=O)[C@@H](NC(=O)[C@H](CC(=O)O)NC(=O)[C@H](CCC(N)=O)NC(=O)[C@H](CC(C)C)NC(=O)[C@H](CC(C)C)NC(=O)[C@H](CCCN)NC(=O)[C@H](Cc1c[nH]cn1)NC(=O)[C@H](C)NC(=O)[C@H](CO)NC(=O)[C@H](CC(C)C)NC(=O)[C@H](CCC(N)=O)NC(=O)[C@H](CC)NC(=O)[C@H](CC(C)C)NC(=O)[C@@H](NC(=O)[C@H](CCCN)NC(=O)[C@H](Cc1c[nH]cn1)NC(=O)[C@H](Cc1ccc(OC)cc1)NC(=O)[C@H](CCCCNC(=N)N)NC(=O)[C@H](C)NC(=O)[C@@H](NC(=O)[C@H](Cc1c(F)c(F)c(F)c(F)c1F)NC(=O)[C@@H](NC(=O)[C@H](C)NC(=O)[C@H](CC(=O)O)NC(=O)[C@@H](CCCNC(=N)N)NC(=O)[C@H](Cc1ccc(O)cc1)NC(=O)CCCCCCCCCCCNC(=O)Cc1ccccc1)[C@@H](C)CC)[C@@H](C)O)C(C)C)[C@@H](C)CC)C(=O)N[C@H](CCCNC(=N)N)C(=O)N[C@@H](CCCCNC(=N)N)C(N)=O` [MIA-602, PhAC-Ada, Tyr D-Arg, Asp, Ala, Ile, 5FPhe, Thr, Ala, Har, Tyr(Me), His, Orn, Val, Leu, Abu, Gin, Leu, Ser, Ala, His, Orn, Leu, Leu, Gin, Asp, Ile, Nle, D-Arg, Har NH2, reference compound] ({PhAc-12Ado}-Y[dR]DAI[Phe(F5)]TA[hArg]Y(Me)H[Orn]VL[Abu]QLSAH[Orn]LLQDI[Nle][dR][hArg]-NH2), in test [1], the “In vitro relative inhibitory potency in comparison to MIA-602, SKOV-3” value was 1. Besides, the “Tumor Growth %” value in test [2] was 810.1%. Also, the “% Inhibition” value in test [2] (vs control) was 38.0%.
